According to patent US20250313556A1, “CERTAIN CHEMICAL ENTITIES, COMPOSITIONS, AND METHODS” (MRJA THERAPEUTICS, INC., priority 2022, published 2025):

What follows are molecules tested against c-KIT (Homo sapiens, UniProt P10721) (assay: c-KIT ADP-Glo biochemical assay). Settings: class ranges.
Experimental: The inhibitory activity against c-KIT was measured using ADP-Glo assay. The percent (%) inhibition at each concentration of compound is calculated based on and relative to the luminescence signal in the Max and Min control wells contained within each assay plate. The Max control wells contain enzyme and substrate as 0% inhibition, and the Min control wells only contain substrate without enzyme as 100% inhibition. The concentrations and % inhibition values for tested compounds are plotted and the concentration of compound required for 50% inhibition (IC50) is determined with a four-parameter logistic dose response equation. The ability of the compounds in Table 1 to inhibit c-KIT was determined.

Chain of c-KIT (P10721 26-976): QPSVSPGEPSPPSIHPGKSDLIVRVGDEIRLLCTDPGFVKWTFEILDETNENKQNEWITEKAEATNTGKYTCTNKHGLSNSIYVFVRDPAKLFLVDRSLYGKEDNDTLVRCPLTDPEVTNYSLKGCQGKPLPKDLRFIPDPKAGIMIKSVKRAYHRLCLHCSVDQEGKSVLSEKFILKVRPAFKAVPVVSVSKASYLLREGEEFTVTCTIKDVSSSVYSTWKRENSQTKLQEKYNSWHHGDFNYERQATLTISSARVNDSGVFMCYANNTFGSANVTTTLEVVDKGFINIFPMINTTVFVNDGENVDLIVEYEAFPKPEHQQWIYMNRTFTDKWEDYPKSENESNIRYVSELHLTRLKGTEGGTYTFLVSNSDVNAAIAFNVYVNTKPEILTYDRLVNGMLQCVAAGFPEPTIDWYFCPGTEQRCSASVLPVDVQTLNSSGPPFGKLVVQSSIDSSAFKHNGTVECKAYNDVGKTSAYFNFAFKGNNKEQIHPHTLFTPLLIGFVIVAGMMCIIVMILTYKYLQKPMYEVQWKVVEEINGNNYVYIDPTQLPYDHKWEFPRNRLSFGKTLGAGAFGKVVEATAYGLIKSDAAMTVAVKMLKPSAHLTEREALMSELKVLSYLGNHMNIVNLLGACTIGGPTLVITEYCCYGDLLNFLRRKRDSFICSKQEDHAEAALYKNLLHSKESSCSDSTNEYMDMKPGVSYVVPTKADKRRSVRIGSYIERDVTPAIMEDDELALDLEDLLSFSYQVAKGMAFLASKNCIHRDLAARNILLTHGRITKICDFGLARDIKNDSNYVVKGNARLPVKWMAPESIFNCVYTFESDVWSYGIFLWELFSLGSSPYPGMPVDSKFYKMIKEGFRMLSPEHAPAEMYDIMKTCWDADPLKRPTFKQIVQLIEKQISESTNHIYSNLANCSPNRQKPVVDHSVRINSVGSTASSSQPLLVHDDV

SMILES | IC50
COC(=O)N1CC(c2nnc(-c3cc(F)c(C)c(NC(=O)c4cnc5ccccn45)c3)o2)C1 [Compound C044, methyl 3-(5-(3-fluoro-5-(imidazo[1,2-a]pyridine-3-carboxamido)-4-methylphenyl)-1,3,4-oxadiazol-2-yl)azetidine-1-carboxylate] | 1 to 20 µM
CC(=O)N1CCN(c2ccc3ncc(C(=O)Nc4cc(-c5noc(C6CC(F)(F)C6)n5)cc(F)c4C)n3c2)CC1 [Compound C038, 6-(4-acetylpiperazin-1-yl)-N-(5-(5-(3,3-difluorocyclobutyl)-1,2,4-oxadiazol-3-yl)-3-fluoro-2-methylphenyl)imidazo[1,2-a]pyridine-3-carboxamide] | ≤ 0.1 µM
Cc1c(F)cc(-c2noc(C3CN(C(=O)OCCN)C3)n2)cc1NC(=O)c1cnc2ccccn12 [Compound C041, 2-aminoethyl 3-(3-(3-fluoro-5-(imidazo[1,2-a]pyridine-3-carboxamido)-4-methylphenyl)-1,2,4-oxadiazol-5-yl)azetidine-1-carboxylate] | ≤ 0.1 µM
CC(=O)N1CCN(c2ccc3ncc(C(=O)Nc4cc(-c5noc([C@H]6C[C@@H]6F)n5)cc(F)c4C)n3c2)CC1 (racemic) [Compound C039, 6-(4-acetylpiperazin-1-yl)-N-(3-fluoro-5-(5-((1R,2S)-2-fluorocyclopropyl)-1,2,4-oxadiazol-3-yl)-2-methylphenyl)imidazo[1,2-a]pyridine-3-carboxamide] | ≤ 0.1 µM
CC(=O)N1CCN(c2ccn3c(C(=O)Nc4cc(-c5noc(C6CC(F)(F)C6)n5)cc(F)c4C)cnc3c2)CC1 [Compound C018, 7-(4-acetylpiperazin-1-yl)-N-(5-(5-(3,3-difluorocyclobutyl)-1,2,4-oxadiazol-3-yl)-3-fluoro-2-methylphenyl)imidazo[1,2-a]pyridine-3-carboxamide] | 0.1 to 1 µM
Cc1c(F)cc(-c2noc(C3CC(F)(F)C3)n2)cc1NC(=O)c1cnc2cc(N3CCNCC3)ccn12 [Compound C010, N-(5-(5-(3,3-difluorocyclobutyl)-1,2,4-oxadiazol-3-yl)-3-fluoro-2-methylphenyl)-7-(piperazin-1-yl)imidazo[1,2-a]pyridine-3-carboxamide] | 0.1 to 1 µM
Cc1c(F)cc(-c2noc(C3CC(F)(F)C3)n2)cc1NC(=O)c1cnc2ccc(N3CCNCC3)cn12 [Compound C025, N-(5-(5-(3,3-difluorocyclobutyl)-1,2,4-oxadiazol-3-yl)-3-fluoro-2-methylphenyl)-6-(piperazin-1-yl)imidazo[1,2-a]pyridine-3-carboxamide] | 0.1 to 1 µM
Cc1c(F)cc(-c2noc([C@H]3C[C@@H]3F)n2)cc1NC(=O)c1cnc2ccccn12 (racemic) [Compound C002, N-(3-fluoro-5-(5-((1R,2S)-2-fluorocyclopropyl)-1,2,4-oxadiazol-3-yl)-2-methylphenyl)imidazo[1,2-a]pyridine-3-carboxamide] | 1 to 20 µM
COC(=O)N1CC(c2nc(-c3cc(F)c(C)c(NC(=O)c4cnc5ccc(N6CCNCC6)cn45)c3)no2)C1 [Compound C020, methyl 3-(3-(3-fluoro-4-methyl-5-(6-(piperazin-1-yl)imidazo[1,2-a]pyridine-3-carboxamido)phenyl)-1,2,4-oxadiazol-5-yl)azetidine-1-carboxylate] | 1 to 20 µM
Cc1c(F)cc(-c2noc([C@H]3C[C@@H]3F)n2)cc1NC(=O)c1cnc2cc(N3CCOCC3)ccn12 [Compound C014, N-(3-fluoro-5-(5-((1R,2S)-2-fluorocyclopropyl)-1,2,4-oxadiazol-3-yl)-2-methylphenyl)-7-morpholinoimidazo[1,2-a]pyridine-3-carboxamide] | 0.1 to 1 µM
COC(=O)N1CC[C@@H](c2nc(-c3cc(F)c(C)c(NC(=O)c4cnc5ccccn45)c3F)no2)C1 [Compound C053, methyl (R)-3-(3-(2,5-difluoro-3-(imidazo[1,2-a]pyridine-3-carboxamido)-4-methylphenyl)-1,2,4-oxadiazol-5-yl)pyrrolidine-1-carboxylate] | 1 to 20 µM
COCCOC(=O)N1CC(c2nc(-c3cc(F)c(C)c(NC(=O)c4cnc5ccccn45)c3)no2)C1 [Compound C042, 2-methoxyethyl 3-(3-(3-fluoro-5-(imidazo[1,2-a]pyridine-3-carboxamido)-4-methylphenyl)-1,2,4-oxadiazol-5-yl)azetidine-1-carboxylate] | 0.1 to 1 µM
Cc1c(F)cc(-c2noc(C3CC(F)(F)C3)n2)cc1NC(=O)c1cnn2ccccc12 [Compound C004, N-(5-(5-(3,3-difluorocyclobutyl)-1,2,4-oxadiazol-3-yl)-3-fluoro-2-methylphenyl)pyrazolo[1,5-a]pyridine-3-carboxamide] | 1 to 20 µM
COC(=O)N1CC[C@H](c2nc(-c3cc(F)c(C)c(NC(=O)c4cnc5ccccn45)c3F)no2)C1 [Compound C055, methyl (S)-3-(3-(2,5-difluoro-3-(imidazo[1,2-a]pyridine-3-carboxamido)-4-methylphenyl)-1,2,4-oxadiazol-5-yl)pyrrolidine-1-carboxylate] | 0.1 to 1 µM
COC(=O)N1CC(c2ncc(-c3cc(F)c(C)c(NC(=O)c4cnc5ccccn45)c3)o2)C1 [Compound C046, methyl 3-(5-(3-fluoro-5-(imidazo[1,2-a]pyridine-3-carboxamido)-4-methylphenyl)oxazol-2-yl)azetidine-1-carboxylate] | 1 to 20 µM
COC(=O)N1CCC[C@H](c2nc(-c3cc(F)c(C)c(NC(=O)c4cnc5ccccn45)c3F)no2)C1 [Compound C056, methyl (S)-3-(3-(2,5-difluoro-3-(imidazo[1,2-a]pyridine-3-carboxamido)-4-methylphenyl)-1,2,4-oxadiazol-5-yl)piperidine-1-carboxylate] | 0.1 to 1 µM
COC(=O)N1CC(c2nc(-c3cc(F)c(C)c(NC(=O)c4cnc5ccccn45)c3)co2)C1 [Compound C045, methyl 3-(4-(3-fluoro-5-(imidazo[1,2-a]pyridine-3-carboxamido)-4-methylphenyl)oxazol-2-yl)azetidine-1-carboxylate] | 0.1 to 1 µM
COC(=O)N1CC(c2nc(-c3cc(F)c(C)c(NC(=O)c4cnc5ccc(N6CCN(C(C)=O)CC6)cn45)c3)no2)C1 [Compound C036, methyl 3-(3-(3-(6-(4-acetylpiperazin-1-yl)imidazo[1,2-a]pyridine-3-carboxamido)-5-fluoro-4-methylphenyl)-1,2,4-oxadiazol-5-yl)azetidine-1-carboxylate] | ≤ 0.1 µM
COC(=O)N1CC(c2nc(-c3cc(F)c(C)c(NC(=O)c4cnc5ccccn45)c3F)no2)C1 [Compound C052, methyl 3-(3-(2,5-difluoro-3-(imidazo[1,2-a]pyridine-3-carboxamido)-4-methylphenyl)-1,2,4-oxadiazol-5-yl)azetidine-1-carboxylate] | ≤ 0.1 µM

The next lines start with the values.

IC50 | SMILES
0.1 to 1 µM | CCOC(=O)N1CC(c2nc(-c3cc(F)c(C)c(NC(=O)c4cnc5ccccn45)c3)no2)C1 [Compound C023, ethyl 3-(3-(3-fluoro-5-(imidazo[1,2-a]pyridine-3-carboxamido)-4-methylphenyl)-1,2,4-oxadiazol-5-yl)azetidine-1-carboxylate]
0.1 to 1 µM | COC(=O)N1CCC[C@@H](c2nc(-c3cc(F)c(C)c(NC(=O)c4cnc5ccccn45)c3)no2)C1 [Compound C049, methyl (R)-3-(3-(3-fluoro-5-(imidazo[1,2-a]pyridine-3-carboxamido)-4-methylphenyl)-1,2,4-oxadiazol-5-yl)piperidine-1-carboxylate]
1 to 20 µM | COC(=O)N1CC(c2nc(-c3cc(F)c(C)c(NC(=O)c4cnc5cc(C#N)ccn45)c3)no2)C1 [Compound C035, methyl 3-(3-(3-(7-cyanoimidazo[1,2-a]pyridine-3-carboxamido)-5-fluoro-4-methylphenyl)-1,2,4-oxadiazol-5-yl)azetidine-1-carboxylate]
≤ 0.1 µM | COC(=O)N1CC(c2nc(-c3cc(F)c(C)c(NC(=O)c4cnc5ccc(C(N)=O)cn45)c3)no2)C1 [Compound C040, methyl 3-(3-(3-(6-carbamoylimidazo[1,2-a]pyridine-3-carboxamido)-5-fluoro-4-methylphenyl)-1,2,4-oxadiazol-5-yl)azetidine-1-carboxylate]
0.1 to 1 µM | COC(=O)N1CC(c2nc(-c3cc(F)c(C)c(NC(=O)c4cnc5cc(Cl)ccn45)c3)no2)C1 [Compound C016, methyl 3-(3-(3-(7-chloroimidazo[1,2-a]pyridine-3-carboxamido)-5-fluoro-4-methylphenyl)-1,2,4-oxadiazol-5-yl)azetidine-1-carboxylate]
0.1 to 1 µM | COC(=O)N1CC(c2nc(-c3cc(F)c(C)c(NC(=O)c4cnc5cc(N6CCNCC6)ccn45)c3)no2)C1 [Compound C030, methyl 3-(3-(3-fluoro-4-methyl-5-(7-(piperazin-1-yl)imidazo[1,2-a]pyridine-3-carboxamido)phenyl)-1,2,4-oxadiazol-5-yl)azetidine-1-carboxylate]
0.1 to 1 µM | COC(=O)N1CC(c2nc(-c3cc(F)c(C)c(NC(=O)c4cnc5cc(C)ccn45)c3)no2)C1 [Compound C017, methyl 3-(3-(3-fluoro-4-methyl-5-(7-methylimidazo[1,2-a]pyridine-3-carboxamido)phenyl)-1,2,4-oxadiazol-5-yl)azetidine-1-carboxylate]
0.1 to 1 µM | COC(=O)N1CC(c2nc(-c3cc(F)c(C)c(NC(=O)c4cnc5cc(F)ccn45)c3)no2)C1 [Compound C024, methyl 3-(3-(3-fluoro-5-(7-fluoroimidazo[1,2-a]pyridine-3-carboxamido)-4-methylphenyl)-1,2,4-oxadiazol-5-yl)azetidine-1-carboxylate]
0.1 to 1 µM | COC(=O)N1CC(c2nc(-c3cc(F)c(C)c(NC(=O)c4cnc5ccc(Cl)cn45)c3)no2)C1 [Compound C012, methyl 3-(3-(3-(6-chloroimidazo[1,2-a]pyridine-3-carboxamido)-5-fluoro-4-methylphenyl)-1,2,4-oxadiazol-5-yl)azetidine-1-carboxylate]
